“Also recorded” adds a separate entry of the source.
Legend:
[1] = Ex vivo biodistribution of 11C-SA4503 in C6 glioma-bearing Wistar rats; conditions: for SUV of 11C, C6 tumour / SUV of 11C, Cerebellum / SUV of 11C, Cerebral cortex: 60 min after injection
[2] = biological target: cellular sigma receptors (C6 rat glioma cells) (Rattus norvegicus, UniProt Q9R0C9); test: Competition with 11C-SA4503 binding to intact C6 glioma cell monolayers; conditions: for competition with 11C-SA4503 for binding to cellular sigma receptors: 50 µM competitor added to normal growth medium (DMEM with 7.5% FCS); for reduction of 11C-SA4503 radioligand binding to C6 cells: 50 µM competitor, steroid-free medium; for rank order of potency as competitor of 11C-SA4503 binding: C6 cells, both normal and steroid-depleted medium, 50 µM
Sequence of cellular sigma receptors (C6 rat glioma cells) (Q9R0C9 whole entry): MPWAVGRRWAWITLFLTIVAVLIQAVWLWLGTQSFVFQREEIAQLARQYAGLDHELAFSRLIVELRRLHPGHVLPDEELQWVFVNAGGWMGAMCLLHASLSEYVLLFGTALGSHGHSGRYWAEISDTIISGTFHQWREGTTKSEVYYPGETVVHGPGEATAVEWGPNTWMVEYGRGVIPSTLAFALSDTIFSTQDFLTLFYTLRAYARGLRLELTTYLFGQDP

[3] = biological target: sigma-1 receptors in tumour and brain (Rattus norvegicus, UniProt Q9R0C9); test: microPET scanning of 11C-SA4503 in C6 glioma-bearing Wistar rats
Sequence of sigma-1 receptors in tumour and brain (Q9R0C9 whole entry): as above

Plasma progesterone = conditions: female rats; cited from earlier work
[4] = test system: endogenous steroid levels in the brain (progesterone, pregnenolone); conditions: male rats, sodium pentobarbital 0.2 mmol/kg i.p.; cited from earlier work
[5] = prolonged pentobarbital anaesthesia, n = 5
[6] = progesterone 3 x 10 mg i.p. in arachid oil vs arachid oil
[7] = prolonged pentobarbital anaesthesia vs control

Structure (SMILES): COc1ccc(CCN2CCN(CCCc3ccccc3)CC2)cc1OC [11C-SA4503]
- SUV of 11C, C6 tumour ([1]; control (arachid oil), n = 4): 0.83
- SUV of 11C, Cerebellum ([1]; control (arachid oil), n = 4): 1.66
- SUV of 11C, Cerebral cortex ([1]; control (arachid oil), n = 4): 1.50
- SUV of 11C, C6 tumour [1, 5]: 1.52
- SUV of 11C, Cerebellum [1, 5]: 2.41
- SUV of 11C, Cerebral cortex [1, 5]: 2.38

Structure (SMILES): C[C@]12CC[C@H]3[C@@H](CCC4=CC(=O)CC[C@@]43C)[C@@H]1CC[C@@H]2O [testosterone]
- competition with 11C-SA4503 for binding to cellular sigma receptors [2]: measurable competition
- reduction of 11C-SA4503 radioligand binding to C6 cells [2]: 40%
- rank order of potency as competitor of 11C-SA4503 binding [2]: progesterone > androstanolone = testosterone = allopregnanolone > DHEA-S

Structure (SMILES): C[C@]12CCC(=O)C[C@@H]1CC[C@@H]1[C@@H]2CC[C@]2(C)[C@@H](O)CC[C@@H]12 [androstanolone, 5α-androstan-17β-ol-3-one]
- competition with 11C-SA4503 for binding to cellular sigma receptors [2]: measurable competition
- rank order of potency as competitor of 11C-SA4503 binding [2]: progesterone > androstanolone = testosterone = allopregnanolone > DHEA-S

Structure (SMILES): C[C@]12CC[C@H](OS(=O)(=O)[O-])CC1=CC[C@@H]1[C@@H]2CC[C@]2(C)C(=O)CC[C@@H]12.[Na+] [DHEA-S, dehydroepiandrosterone 3-sulphate sodium salt]
- competition with 11C-SA4503 for binding to cellular sigma receptors [2]: no statistically significant effect
- reduction of 11C-SA4503 radioligand binding to C6 cells [2]: significant decrease
- rank order of potency as competitor of 11C-SA4503 binding [2]: progesterone > androstanolone = testosterone = allopregnanolone > DHEA-S

Structure (SMILES): CC(=O)[C@H]1CC[C@H]2[C@@H]3CCC4=CC(=O)CC[C@]4(C)[C@H]3CC[C@]12C [progesterone]
- effect on 11C-SA4503 tracer kinetics in blood pool (microPET) [3, 6]: did not significantly affect; also recorded: not accompanied by any significant change
- effect on 11C-SA4503 tracer kinetics in brain (microPET) [3, 6]: did not significantly affect
- decrease of sigma ligand (11C-SA4503) binding in C6 tumour (biodistribution) ([1]; progesterone 3 x 10 mg i.p. vs arachid oil, 60 min after tracer): 31%

Structure (SMILES): CCCC(C)C1(CC)C(=O)NC(=O)NC1=O (stereo not drawn) [pentobarbital]
- inhibition of 11C-SA4503 binding to C6 cells ([2]; up to 1 mM in normal medium): did not result in any inhibition
- effect on plasma progesterone (Plasma progesterone): decreased
- effect on kinetics of 11C-SA4503 radioactivity in blood pool (right lung) ([3]; prolonged pentobarbital anaesthesia (>3.5 h) vs short (<20 min)): unaffected; also recorded: did not significantly affect
- effect on amount of 11C-SA4503 radioactivity in the liver (biodistribution) [1, 7]: significantly decreased
- effect on plasma levels of 11C-SA4503 radioactivity (biodistribution) [1, 7]: not changed
- effect on sigma ligand binding in C6 tumour, brain (cerebellum, cerebral cortex), bone, bone marrow, large intestine, blood cells and spleen (biodistribution) [1, 7]: significant increase
- decline of endogenous steroid levels in the brain (progesterone, pregnenolone) [4]: > 70%
